In this experiment the test system is MM.1S cells. Put plainly: Effect of the compound on the proliferation of MM.1S cells (MTS). To be noted: Homo sapiens, MM1.S, 168 h, 7 days, read-out: Cell inhibitory activity (IC50). The experiment is classed as cell-based. On the procedure:
MM.1S cells were cultured with 1640 plus 10% fetal bovine serum and collected. The cell concentration was diluted according to the action time of 7 days, and 180 ul cell suspension was added to each well of the 96-well cell plate to make the cell count to be 20,000. 20 ul of DMSO with a final concentration of 0.2% was added to the control cell wells. The compound was diluted 5-fold with the 10 mM stock solution, and 20 ul was also added to the compound cell wells (the final concentration of DMSO is 0.2%). The cells were placed in a 37° C., 5% CO2 incubator and incubated for 7 days. After preparing the reaction solution according to the MTS kit (Promega, G5430), 20 μL was added to each well, incubated in a 37° C., 5% CO2 incubator for 3-4 h. Read the 490 nm absorbance value with a microtiter plate, and used the 690 nm absorbance value as the background value and OD490-OD690 as the final initial data. The formula for calculating the inhibition rate of the compound is: inhibition rate=(OD DMSO-ODcompound)/(ODDMSO-Oblank)×100%. The compound's proliferation inhibition IC50 was fitted by Graph Pad Prism 5.0. The experiment was repeated three times, and three parallel experiments were used to calculate the average and standard deviation each time.
The IC50 is the concentration that inhibits the measured activity by half. As for `O=C1CCC(N2Cc3c(OCc4cn(Cc5ccccc5)nn4)cccc3C2=O)C(=O)N1` (centres unmarked) [Compound 1], the IC50 was < 150 nM.
The same measure for `O=C1CCC(N2Cc3c(OCc4cn(Cc5ccncc5)nn4)cccc3C2=O)C(=O)N1` (centres unmarked) [Compound 2]: 150 to 20000 nM; for `O=C1CCC(N2Cc3c(OCc4cn(Cc5cccnc5)nn4)cccc3C2=O)C(=O)N1` (centres unmarked) [Compound 3]: 150 to 20000 nM.
As to `O=C1CCC(N2Cc3c(OCc4cn(Cc5ccnc6ccccc56)nn4)cccc3C2=O)C(=O)N1` (centres unmarked) [Compound 4], the 50% inhibitory concentration (IC50) was < 150 nM.
As for `COc1cccc(Cn2cc(COc3cccc4c3CN(C3CCC(=O)NC3=O)C4=O)nn2)c1` (centres unmarked) [Compound 5], the IC50 was < 150 nM.
With `O=C1CCC(N2Cc3c(OCc4cn(Cc5cccc(C(F)(F)F)c5)nn4)cccc3C2=O)C(=O)N1` (centres unmarked) [Compound 6, 3-(1-oxo-4-((1-(3-(trifluoromethyl)benzyl)-1H-1,2,3-triazol-4-)methoxy)isoindolin-2-) piperidine-2,6-dione], the IC50 is < 150 nM.
On to `O=C1CCC(N2Cc3c(OCc4cn(Cc5cccc(N6CCOCC6)c5)nn4)cccc3C2=O)C(=O)N1` (centres unmarked) [Compound 7, 3-(4-((1-(3-morpholinbenzyl)-1H-1,2,3-triazol-4-)methoxy)-1-oxoisoindolin-2-) piperidine-2,6-dione], for which the IC50 is < 150 nM.
The same measure for `O=C1CCC(N2Cc3c(OCc4cn(Cc5ccc(N6CCOCC6)cc5)nn4)cccc3C2=O)C(=O)N1` (centres unmarked) [Compound 8, 3-(4-((1-(4-morpholinbenzyl)-1H-1,2,3-triazol-4-)methoxy)-1-oxoisoindolin-2-) piperidine-2,6-dione]: < 150 nM; for `CN(C)c1cccc(Cn2cc(COc3cccc4c3CN(C3CCC(=O)NC3=O)C4=O)nn2)c1` (centres unmarked) [Compound 9]: < 150 nM; for `COC(=O)c1cccc(Cn2cc(COc3cccc4c3CN(C3CCC(=O)NC3=O)C4=O)nn2)c1` (centres unmarked) [Compound 10, Methyl 3-((4-(((2-(2,6-dioxopiperidin-3-)-1-oxoisoindolin-4-)oxo)methyl)-1H-1,2,3-triazol-1-)methyl) benzoate]: < 150 nM.
On to `O=C1CCC(N2Cc3c(OCc4cn(Cc5cccc(OC(F)(F)F)c5)nn4)cccc3C2=O)C(=O)N1` (centres unmarked) [Compound 11], for which the 50% inhibitory concentration (IC50) is < 150 nM.
The same measure for `O=C1CCC(N2Cc3c(OCc4cn(Cc5ccc(CN6CCOCC6)cc5)nn4)cccc3C2=O)C(=O)N1` (centres unmarked) [Compound 12, 3-(4-((1-(4-(morpholinomethyl)benzyl)-1H-1,2,3-triazol-4-)methoxy)-1-oxoisoindolin-2-) piperidine-2,6-dione]: < 150 nM; for `O=C1CCC(N2Cc3c(OCc4cn(Cc5ccc6[nH]cnc6c5)nn4)cccc3C2=O)C(=O)N1` (centres unmarked) [Compound 13]: 150 to 20000 nM; for `O=C1CCC(N2Cc3c(OCc4cn(Cc5cccc(-n6ccnc6)c5)nn4)cccc3C2=O)C(=O)N1` (centres unmarked) [Compound 14, 3-(4-((1-(3-(1H-imidazol-1-)benzyl)-1H-1,2,3-triazol-4-)methoxy)-1-oxoisoindolin-2-) piperidine-2,6-dione]: < 150 nM.
Consider `O=C1CCC(N2Cc3c(OCc4cn(-c5ccccc5)nn4)cccc3C2=O)C(=O)N1` (centres unmarked) [Compound 15, 3-(1-oxo-4-((1-phenyl-1H-1,2,3-triazol-4-)methoxy)isoindolin-2-) piperidine-2,6-dione], for which the IC50 is < 150 nM.
In the case of `O=C1CCC(N2Cc3c(OCc4cn(-c5cccc(O)c5)nn4)cccc3C2=O)C(=O)N1` (centres unmarked) [Compound 16, 3-(4-((1-(3-hydroxyphenyl)-1H-1,2,3-triazol-4-)methoxy)-1-oxoisoindolin-2-) piperidine-2,6-dione], the IC50 is < 150 nM.
Take `O=C1CCC(N2Cc3c(OCc4cn(-c5ccc(O)cc5)nn4)cccc3C2=O)C(=O)N1` (centres unmarked) [Compound 21, 3-(4-((1-(4-hydroxyphenyl)-1H-1,2,3-triazol-4-)methoxy)-1-oxoisoindolin-2-) piperidine-2,6-dione]: the IC50 is < 150 nM.
The same measure for `O=C1CCC(N2Cc3c(OCc4cn(-c5cccc(N6CCOCC6)c5)nn4)cccc3C2=O)C(=O)N1` (centres unmarked) [Compound 22, 3-(4-((1-(3-morpholinophenyl)-1H-1,2,3-triazol-4-)methoxy)-1-oxoisoindolin-2-) piperidine-2,6-dione]: < 150 nM; for `CN(C)CCn1ccc2cc(-n3cc(COc4cccc5c4CN(C4CCC(=O)NC4=O)C5=O)nn3)ccc21` (centres unmarked) [Compound 27, 3-(4-((1-(1-(2-(dimethylamino)ethyl)-1H-indol-5-)-1H-1,2,3-triazol-4-)methoxy)-1-oxoisoindolin-2-)piperidine-2,6-dione]: < 150 nM; for `O=C1CCC(N2Cc3c(OCc4cn(-c5ccc(OC6COC6)cc5)nn4)cccc3C2=O)C(=O)N1` (centres unmarked) [Compound 31, 3-(4-((1-(4-(epoxypropanoxy-3-oxy)phenyl)-1H-1,2,3-triazol-4-)methoxy)-1-oxoisoindolin-2-)piperidine-2,6-dione]: < 150 nM.
For `O=C1CCC(N2Cc3c(OCc4cn(-c5ccc(OC6CC6)cc5)nn4)cccc3C2=O)C(=O)N1` (centres unmarked) [Compound 32], the IC50 was < 150 nM.
Turning to `O=C1CCC(N2Cc3c(OCc4cn(-c5ccc(CCO)cc5)nn4)cccc3C2=O)C(=O)N1` (centres unmarked) [Compound 33], the IC50 was < 150 nM.
Regarding `C[C@]1(N2Cc3c(OCc4cn(-c5ccc(OC(F)(F)F)cc5)nn4)cccc3C2=O)CCC(=O)NC1=O` [Compound 34], the IC50 lay within 150 to 20000 nM.
As for `C[C@]1(N2C(=O)c3cccc(OCc4cn(-c5ccc(OC(F)(F)F)cc5)nn4)c3C2=O)CCC(=O)NC1=O` [Compound 35], the figure is 150 to 20000 nM.
Regarding `COCCn1ccc2cc(-n3cc(COc4cccc5c4CN([C@@]4(C)CCC(=O)NC4=O)C5=O)nn3)ccc21` [Compound 36, (S)-3-(4-((1-(1-(2-methoxyethyl)-1H-indol-5-)-1H-1,2,3-triazol-4-)methoxy)-1-oxoisoindolin-2-)-3-methylpiperidine-2,6-dione], the IC50 lay within 150 to 20000 nM.
On to `COCCn1ccc2cc(-n3cc(COc4cccc5c4C(=O)N([C@@]4(C)CCC(=O)NC4=O)C5=O)nn3)ccc21` [Compound 37, (S)-4-((1-(1-(2-methoxyethyl)-1H-indole-5-)-1H-1,2,3-triazol-4-)methoxy)-2-(3-methyl-2,6-dioxopiperidine-3-) isoindolin-1,3-dione], for which the IC50 was in the range of 150 to 20000 nM.
With `O=C1CCC(N2C(=O)c3cccc(OCc4cn(-c5ccc(OC(F)(F)F)cc5)nn4)c3C2=O)C(=O)N1` (centres unmarked) [Compound 38, 2-(2,6-dioxopiperidine-3-)-4-((1-(4-trifluoromethoxyphenyl)-1H-1,2,3-triazol-4-)methoxy) isoindolin-1,3-dione], the IC50 lay in the range of 150 to 20000 nM.
With `O=C1CCC(N2Cc3c(OCc4cnc(-c5nc6ccccc6s5)s4)cccc3C2=O)C(=O)N1` (centres unmarked) [Compound 46, 3-(4-(2-(benzo[d]thiazol-2-)thiazol-5-)methoxy)-1-oxoisoindolin-2-) piperidine-2,6-dione], the IC50 was < 150 nM.
On to `O=C1CCC(N2Cc3c(OCc4cnc(-c5ncc(C(F)(F)F)s5)s4)cccc3C2=O)C(=O)N1` (centres unmarked) [Compound 47], for which the IC50 is < 150 nM.
With `O=C1CCC(N2Cc3c(OCc4cn(CC5CCOCC5)nn4)cccc3C2=O)C(=O)N1` (centres unmarked) [Compound 48, 3-(1-oxo-4-((1-((tetrahydro-2H-pyran-4-)methyl)-1H-1,2,3-triazol-4-)methoxy)isoindolin-2-) piperidine-2,6-dione], the IC50 was in the range of 150 to 20000 nM.
Turning to `O=C1CCC(N2Cc3c(OCc4cn(CCc5ccccc5)nn4)cccc3C2=O)C(=O)N1` (centres unmarked) [Compound 49], the 50% inhibitory concentration (IC50) is < 150 nM.
Turning to `C[C@H](c1ccccc1)n1cc(COc2cccc3c2CN(C2CCC(=O)NC2=O)C3=O)nn1` (some centres unmarked) [Compound 50], the IC50 is < 150 nM.
For the compound `C[C@@H](c1ccccc1)n1cc(COc2cccc3c2CN(C2CCC(=O)NC2=O)C3=O)nn1` (some centres unmarked) [Compound 51], the IC50 was < 150 nM.
With `COC[C@@H](Cc1ccccc1)n1cc(COc2cccc3c2CN(C2CCC(=O)NC2=O)C3=O)nn1` (some centres unmarked) [Compound 52], the IC50 is < 150 nM.
As for `O=C1CCC(N2Cc3c(OCc4cn([C@@H](CO)Cc5ccccc5)nn4)cccc3C2=O)C(=O)N1` (some centres unmarked) [Compound 53], the IC50 was < 150 nM.
Take `O=C1CCC(N2Cc3c(OCc4cn([C@H](CO)Cc5ccccc5)nn4)cccc3C2=O)C(=O)N1` (some centres unmarked) [Compound 54]: the IC50 was 150 to 20000 nM.
For the compound `CN(C)C[C@H](Cc1ccccc1)n1cc(COc2cccc3c2CN(C2CCC(=O)NC2=O)C3=O)nn1` (some centres unmarked) [Compound 56], the IC50 is < 150 nM.
Turning to `CN(C)C[C@@H](Cc1ccccc1)n1cc(COc2cccc3c2CN(C2CCC(=O)NC2=O)C3=O)nn1` (some centres unmarked) [Compound 57], the IC50 was < 150 nM.
Take `C[C@H](Cc1ccccc1)n1cc(COc2cccc3c2CN(C2CCC(=O)NC2=O)C3=O)nn1` (stereo partly drawn) [Compound 58, 3-(1-oxo-4-((1-((R)-1-phenylpropyl-2-)-1H-1,2,3-triazol-4-)methoxy)isoindolin-2-) piperidine-2,6-dione]: the half-inhibitory concentration (IC50) is < 150 nM.
Take `C[C@@H](Cc1ccccc1)n1cc(COc2cccc3c2CN(C2CCC(=O)NC2=O)C3=O)nn1` (stereo partly drawn) [Compound 59, 3-(1-oxo-4-((1-((S)-1-phenylpropyl-2-)-1H-1,2,3-triazol-4-)methoxy)isoindolin-2-) piperidine-2,6-dione]: the IC50 is < 150 nM.
On to `O=C1CCC(N2Cc3c(OCCc4cn(-c5ccccc5)nn4)cccc3C2=O)C(=O)N1` (centres unmarked) [Compound 60, 3-(1-oxo-4-(2-(1-phenyl-1H-1,2,3-triazol-4-)ethoxy)isoindolin-2-) piperidine-2,6-dione], for which the IC50 is > 20000 nM.

These data come from patent publication US20220041578A1, “ISOINDOLINE COMPOUND, AND PREPARATION METHOD, PHARMACEUTICAL COMPOSITION, AND APPLICATION OF ISOINDOLINE COMPOUND” (Shanghai Institute of Meteria Medica, Chinese Academy of …, priority 2018, published 2022).
